Results as given in US20090143361A1, “Pyrido[3,2-E]Pyrazines, Process For Preparing The Same, And Their Use As Inhibitors Of Phosphodiesterase 10” (ELBION GMBH, priority 2007, published 2009).
Like-named read-outs stand apart in the source and are kept apart here.

How the values were obtained:
human recombinant PDE10A = biological target: T1, human recombinant PDE10A (Homo sapiens, UniProt Q9Y233); test: Inhibition of PDE10, human recombinant PDE10A ([3H]-cAMP SPA); format: biochemical
T1 construct: made in house; host or cells: SF21 insect cells (baculovirus)
T1 sequence (Q9Y233 1-779 isoform Q9Y233-1): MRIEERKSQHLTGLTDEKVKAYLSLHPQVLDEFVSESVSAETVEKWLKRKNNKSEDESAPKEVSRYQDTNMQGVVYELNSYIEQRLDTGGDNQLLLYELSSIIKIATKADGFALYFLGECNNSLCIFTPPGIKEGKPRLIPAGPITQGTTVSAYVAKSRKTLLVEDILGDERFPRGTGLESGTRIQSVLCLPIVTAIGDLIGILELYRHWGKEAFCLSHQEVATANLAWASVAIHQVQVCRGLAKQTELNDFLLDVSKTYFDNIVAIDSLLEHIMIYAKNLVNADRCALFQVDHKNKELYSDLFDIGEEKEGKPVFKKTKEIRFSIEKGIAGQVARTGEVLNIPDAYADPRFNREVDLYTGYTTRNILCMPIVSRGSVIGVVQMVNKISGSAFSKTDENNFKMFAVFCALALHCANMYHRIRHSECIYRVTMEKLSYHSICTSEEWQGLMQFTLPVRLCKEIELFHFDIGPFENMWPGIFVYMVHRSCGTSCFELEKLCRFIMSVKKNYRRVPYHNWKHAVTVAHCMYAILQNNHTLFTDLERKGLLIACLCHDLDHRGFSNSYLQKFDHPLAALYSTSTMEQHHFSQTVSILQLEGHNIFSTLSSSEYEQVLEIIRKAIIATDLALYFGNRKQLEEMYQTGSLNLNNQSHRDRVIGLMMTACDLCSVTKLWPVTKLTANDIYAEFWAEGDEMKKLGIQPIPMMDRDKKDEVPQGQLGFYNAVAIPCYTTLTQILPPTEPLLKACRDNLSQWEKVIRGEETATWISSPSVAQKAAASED
Protocol: The gene was than inserted into a baculovirus vector, ligated with the baculovirus DNA. The enzyme-protein was expressed in SF21-cells. The enzyme was isolated from these cells by harvesting the cells by a centrifugation at 200 g to collect the cells. The cells were resuspended in 50 mM Tris-HCl/5 mM MgCl2 buffer (pH=7.4) and lysed by a sonication of the cells. The cytosolic PDE10A was obtained by a centrifugation at 48000 g for 1 h in the supernatant and stored at −70° C. PDE10 activity was determined in a one step procedure in microtiterplates. […] Nonspecific activity was tested without the enzyme. The reaction was initiated by addition of the substrate solution and was carried out at 37° C. for 30 minutes. Enzymatic activity was stopped by addition of 25 μl YSi-SPA-beads (Amersham-Pharmacia). One hour later the mixture was measured in a liquid scintillation counter for microtiterplates (Microbeta Trilux). To pipette the incubation mixture a robot Biomek (Fa. Beckman) is used. […] For determination of IC50 values the Hill-plot, 2-parameter-model, was used.

PDE10 from pig striatum = PDE10 from pig striatum (Sus scrofa, UniProt A0A287B941); test: Inhibition of PDE10 from pig striatum ([3H]-cAMP SPA); format: biochemical
Protocol: Phosphodiesterase isoenzyme 10 (PDE10) activity was determined in preparations of human recombinant PDE10A and PDE10 from pig striatum, respectively.
Striatum from male hybrid pigs (150 kg) were collected and frozen at −70° C.
At the day of preparation 0.5 g striatum was homogenised in 10 ml 50 mM Tris/Mg-buffer at 4° C. and centrifuged for one hour at 100000 g. The supernatant was removed and the pellet was resuspended in the same buffer, but containing 1% Triton and incubated for 45 min at 4° C. The membrane fraction was applied onto a 5 ml Hi Trap™ QHP column at the Akta-FPLC. After washing the column the bound PDE protein was eluted with an increasing sodium chloride gradient (O mM-500 mM sodium chloride) in 50 mM Tris/Mg-buffer at 4° C. in the presence of 1% Triton. […] The fractions with PDE10-activity were pooled and frozen in aliquots until use at −20° C.
(§1) PDE10 activity was determined in a one step procedure in microtiterplates. […] Nonspecific activity was tested without the enzyme. The reaction was initiated by addition of the substrate solution and was carried out at 37° C. for 30 minutes. Enzymatic activity was stopped by addition of 25 μl YSi-SPA-beads (Amersham-Pharmacia). One hour later the mixture was measured in a liquid scintillation counter for microtiterplates (Microbeta Trilux). To pipette the incubation mixture a robot Biomek (Fa. Beckman) is used. […] For determination of IC50 values the Hill-plot, 2-parameter-model, was used.
The phosphodiesterase isoenzyme 10 (PDE10) activity was determined in preparations of rat, pig and guinea pig striatum respectively. Striatum from male Wistar rats (180-200 g), male hybrid pigs (150 kg) and male guinea pigs (CRL (HA), 500 g) respectively were collected and frozen at −70° C.
At the day of preparation 0.5 g striatum was homogenized in 10 ml 50 mM Tris/Mg-buffer at 4° C. and centrifuged for one hour at 100000 g. The supernatant is called the cytosolic fraction and was removed and stored on ice. The pellet was resuspended in the same buffer, but containing 1% Triton and incubated for 45 min at 4° C. Both fractions were independently applied onto a 5 ml Hi Trap™ QHP column at the Akta-FPLC. After washing the columns the bound PDE protein was eluted with an increasing sodium chloride gradient (0 mM-500 mM sodium chloride) in 50 mM Tris/Mg-buffer at 4° C. for the cytosolic fraction and in the presence of 1% Triton for the membrane fraction. […] The fractions with PDE10-activity were pooled and frozen in aliquots until use at −20° C.
as §1, with “YSi-SPA beads” for “YSi-SPA-beads”

[1] = Table 7, read-out: Human PDE10 (IC50 nM)
[2] = Table 8, read-out: PDE10 pig IC50
[3] = Table 7, read-out: PDE10 pig IC50

| IC50 (human recombinant PDE10A; Table 9, read-out: hPDE10 IC50) | IC50 (PDE10 from pig striatum; [2]) | SMILES | further results |
| --- | --- | --- | --- |
| < 10 nM | – | Cc1nc(-c2cc(C(N)=O)ccc2F)n2c1c(C)nc1ccc(OCC3CC3)nc12 [Example 151, 3-[2-(cyclopropylmethoxy)-6,7-dimethylimidazo[1,5-a]pyrido[3,2-e]pyrazin-9-yl]-4-fluorobenzamide] | – |
| > 100 nM | – | COc1ccc2nc(C)c3c(C)nc(-c4ccc(N(C)C)nc4)n3c2n1 [Example 178, 5-(2-methoxy-6,7-dimethylimidazo[1,5-a]pyrido[3,2-e]pyrazin-9-yl)-N,N-dimethylpyridin-2-amine] | – |
| > 100 nM | – | COc1ccc2nc(C)c3c(C)nc(-c4cnn(CCN5CCOCC5)c4)n3c2n1 [Example 190, 2-methoxy-6,7-dimethyl-9-[1-(2-morpholin-4-ylethyl)-1H-pyrazol-4-yl]imidazo[1,5-a]pyrido[3,2-e]pyrazine] | – |
| > 100 nM | – | COc1ccc2nc(C#N)c3c(C)nc(-c4ccc(F)nc4C)n3c2n1 [Example 172, 9-(6-fluoro-2-methylpyridin-3-yl)-2-methoxy-7-methylimidazo[1,5-a]pyrido[3,2-e]pyrazine-6-carbonitrile] | – |
| > 100 nM | – | COc1ccc2nc(C)c3c(C)nc(-c4cccc(N5CCOCC5)c4)n3c2n1 [Example 188, 2-methoxy-6,7-dimethyl-9-(3-morpholin-4-ylphenyl)imidazo[1,5-a]pyrido[3,2-e]pyrazine] | – |
| 10 to 100 nM | – | Cc1nc(-c2ccc(Cl)cc2C(F)(F)F)n2c1c(C)nc1ccc(OCC3CC3)nc12 [Example 137, 9-[4-chloro-2-(trifluoromethyl)phenyl]-2-(cyclopropylmethoxy)-6,7-dimethylimidazo[1,5-a]pyrido[3,2-e]pyrazine] | – |
| 10 to 100 nM | – | COc1ccc2nc(C#N)c3c(C)nc(-c4ccccc4C)n3c2n1 [Example 165, 2-methoxy-7-methyl-9-(2-methylphenyl)imidazo[1,5-a]pyrido[3,2-e]pyrazine-6-carbonitrile] | – |
| < 10 nM | – | COc1ccc2nc(C#N)c3c(C)nc(-c4cc(C(N)=O)ccc4F)n3c2n1 [Example 166, 3-(6-cyano-2-methoxy-7-methylimidazo[1,5-a]pyrido[3,2-e]pyrazin-9-yl)-4-fluorobenzamide] | – |
| 10 to 100 nM | – | COc1ccc2nc(C)c3c(C)nc(-c4ccnc(F)c4)n3c2n1 [Example 174, 9-(2-fluoropyridin-4-yl)-2-methoxy-6,7-dimethylimidazo[1,5-a]pyrido[3,2-e]pyrazine] | – |
| 10 to 100 nM | – | Cc1ccc(Cl)cc1-c1nc(C)c2c(C)nc3ccc(OCC4CC4)nc3n12 [Example 134, 9-(5-chloro-2-methylphenyl)-2-(cyclopropylmethoxy)-6,7-dimethylimidazo[1,5-a]pyrido[3,2-e]pyrazine] | – |
| < 10 nM | – | Cc1ccc(C(N)=O)cc1-c1nc(C)c2c(C)nc3ccc(OCC4CC4)nc3n12 [Example 149, 3-[2-(cyclopropylmethoxy)-6,7-dimethylimidazo[1,5-a]pyrido[3,2-e]pyrazin-9-yl]-4-methylbenzamide] | – |
| – | 10 to 100 nM | COc1ccc2nc(C)c3c(C)nc(-c4ccc(Cl)cc4OC)n3c2n1 [Example 90, 9-(4-Chloro-2-methoxyphenyl)-2-methoxy-6,7-dimethylimidazo[1,5-a]pyrido[3,2-e]pyrazine] | – |

The next lines start with the molecule.

| SMILES | IC50 (human recombinant PDE10A; Table 9, read-out: hPDE10 IC50) | IC50 (PDE10 from pig striatum; [2]) | further results |
| --- | --- | --- | --- |
| COc1ccc2nc(NS(C)(=O)=O)c3c(C(F)(F)F)nc(-c4ccccc4C)n3c2n1 [Example 39, N-[2-Methoxy-9-(2-methylphenyl)-7-(trifluoromethyl)imidazo[1,5-a]pyrido[3,2-e]pyrazin-6-yl]methanesulfonamide] | – | – | IC50 (human recombinant PDE10A; [1]): < 10 nM |
| COc1ccc2nc(C)c3c(C(F)(F)F)nc(-c4cc(C(N)=O)ccc4F)n3c2n1 [Example 36, 4-Fluoro-3-[2-methoxy-6-methyl-7-(trifluoromethyl)imidazo[1,5-a]pyrido[3,2-e]pyrazin-9-yl]benzamide] | – | – | IC50 (human recombinant PDE10A; [1]): 10 to 100 nM |
| COc1ccc2nc(C#N)c3c(C)nc(-c4cc(Cl)ccc4Cl)n3c2n1 [Example 40, 9-(2,5-Dichlorophenyl)-2-methoxy-7-methylimidazo[1,5-a]pyrido[3,2-e]pyrazine-6-carbonitrile] | – | – | IC50 (human recombinant PDE10A; [1]): 10 to 100 nM |
| COc1ccc2nc(C)c3c(C)nc(-c4ccco4)n3c2n1 [Example 60, 9-(2-Furyl)-2-methoxy-6,7-dimethylimidazo[1,5-a]pyrido[3,2-e]pyrazine] | – | 10 to 100 nM | – |
| COc1ccc2nc(C)c3c(C)nc(-c4cc(Cl)ccc4C)n3c2n1 [Example 79, 9-(5-Chloro-2-methylphenyl)-2-methoxy-6,7-dimethylimidazo[1,5-a]pyrido[3,2-e]pyrazine] | – | < 10 nM | – |
| COc1ccc2nc(C)c3c(C)nc(CCC(F)(F)F)n3c2n1 [Example 42, 2-Methoxy-6,7-dimethyl-9-(3,3,3-trifluoropropyl)imidazo[1,5-a]pyrido[3,2-e]pyrazine] | – | 10 to 100 nM | – |
| COc1ccc(-c2nc(C)c3c(C)nc4ccc(OC)nc4n23)c(Cl)c1 [Example 18, 9-(2-Chloro-4-methoxyphenyl)-2-methoxy-6,7-dimethylimidazo[1,5-a]pyrido[3,2-e]pyrazine] | – | – | IC50 (PDE10 from pig striatum; [3]): < 10 nM |
| COc1ccc2nc(C#N)c3c(C)nc(-c4ccccc4Cl)n3c2n1 [Example 111, 9-(2-chlorophenyl)-2-methoxy-7-methylimidazo[1,5-a]pyrido[3,2-e]pyrazine-6-carbonitrile] | – | – | IC50 (PDE10 from pig striatum; Table 9, cells marked pPDE10, read-out: IC50 (nM) (pPDE10)): < 10 nM |
| COc1ccc2nc(C)c3c(C)nc(-c4cccc(C)c4)n3c2n1 [Example 65, 2-Methoxy-6,7-dimethyl-9-(3-methylphenyl)imidazo[1,5-a]pyrido[3,2-e]pyrazine] | – | < 10 nM | – |
| COc1ccc2nc(Cl)c3c(C)nc(CCC(F)(F)F)n3c2n1 [Example 41, 6-Chloro-2-methoxy-7-methyl-9-(3,3,3-trifluoropropyl)imidazo[1,5-a]pyrido[3,2-e]pyrazine] | – | 10 to 100 nM | – |
| COc1ccc2nc(C)c3c(C)nc(-c4ccoc4)n3c2n1 [Example 58, 9-(3-Furyl)-2-methoxy-6,7-dimethylimidazo[1,5-a]pyrido[3,2-e]pyrazine] | – | 10 to 100 nM | – |
| COc1ccc2nc(N)c3c(C)nc(CCC(F)(F)F)n3c2n1 [Example 44, 2-Methoxy-7-methyl-9-(3,3,3-trifluoropropyl)imidazo[1,5-a]pyrido[3,2-e]pyrazin-6-amine] | – | 10 to 100 nM | – |
| COc1ccc2nc(C)c3c(C)nc(-c4ccccc4OC(C)C)n3c2n1 [Example 54, 9-(2-Isopropoxyphenyl)-2-methoxy-6,7-dimethylimidazo[1,5-a]pyrido[3,2-e]pyrazine] | – | > 100 nM | – |
| COc1ccc2nc(C)c3c(C)nc(-c4ccc(C)cc4Cl)n3c2n1 [Example 12, 9-(2-Chloro-4-methylphenyl)-2-methoxy-6,7-dimethylimidazo[1,5-a]pyrido[3,2-e]pyrazine] | – | – | IC50 (PDE10 from pig striatum; [3]): < 10 nM |
| COc1ccc2nc(C)c3c(C)nc(-c4ccc(F)cc4F)n3c2n1 [Example 8, 9-(2,4-Difluorophenyl)-2-methoxy-6,7-dimethylimidazo[1,5-a]pyrido[3,2-e]pyrazine] | – | – | IC50 (PDE10 from pig striatum; [3]): 10 to 100 nM |
| CCCc1nc(C)c2c(C)nc3ccc(OCC)nc3n12 [Example 3, 2-Ethoxy-6,7-dimethyl-9-propylimidazo[1,5-a]pyrido[3,2-e]pyrazine] | – | – | IC50 (PDE10 from pig striatum; [3]): 10 to 100 nM |
| COc1ccc2nc(C)c3c(C)nc(-c4cc(F)ccc4OC)n3c2n1 [Example 83, 9-(5-Fluoro-2-methoxyphenyl)-2-methoxy-6,7-dimethylimidazo[1,5-a]pyrido[3,2-e]pyrazine] | – | 10 to 100 nM | – |
